Data set [1] deals with primary adrenal cell cultures. Nature of the data set: Steroid hormone production (LC-MS/MS) in primary adrenal cell cultures treated with SC-26196, with or without ACTH or ARA. Format: cell-based, WT C57BL/6J mice. Here is the method:
Adrenal glands or adrenal corteces were isolated from WT C57BL/6J mice, cleaned from the surrounding fat tissue and incubated in collagenase buffer (1.6 mg/ml collagenase type I, 1.6 mg/ml BSA) for 45 min at 37 °C, while shaking at 900 rpm. Dissociated cells were passed through 22 G needle and a 100 µm cell strainer and centrifuged at 300 × g for 5 min at 4 °C. Cells of a pool from two adrenals of each mouse were distributed in four 0.2 % gelatin-precoated wells of a 96-well plate in DMEM/F12 supplemented with 1 % FBS, 50 U/mL penicillin and 50 µg/mL streptomycin. Two hours after seeding 10 µM SC-26196 (Tocris, Wiesbaden-Nordenstadt, Germany) or same amount of carrier (DMSO) were added without changing the medium. In some experiments medium was additionally supplemented with 150 µM ARA (Sigma Aldrich, Germany) or same amount of solvent (endotoxin-free water). When induction of steroidogenesis was required, the medium was changed 18 h after treatment and the cells were incubated with or without 10 ng/mL ACTH for 60 min in the presence of either 10 µM SC-26196 or DMSO. Supernatants were kept for steroid hormone measurement and cell lysates were collected for transcriptional analysis. In some experiments, primary CD31-CD45- adrenocortical cells were treated or not for 18 h with 66 µM EPA (Sigma-Aldrich). Steroid hormones in plasma and cell culture supernatants were analyzed by LC-MS/MS as previously described (71). Fifty to hundred µL plasma or cell culture supernatants were extracted by solid phase extraction using positive pressure, followed by a dry-down under gentle stream of nitrogen. Residues were reconstituted in 100 µL of the initial LC mobile phase and 10 µL were injected for detection by the triple quadrupole mass spectrometer in multiple reaction-monitoring scan mode using positive electrospray ionization. Quantification of steroid concentrations was done by comparisons of ratios of analyte peak areas to respective peak areas of stable isotope labeled internal standards obtained in samples to those of calibrators.

In data set [2] the test system is primary adrenocortical cultures. Nature of the data set: Medulla explant-conditioned medium on primary adrenocortical cell cultures, steroids by LC-MS/MS. Format: cell-based, WT C57BL/6J mice. As to the method: Medullas were isolated from WT C57BL/6J mice and transferred into DMEM/F12 medium. Six hours later the medulla explant supernatants were collected and applied onto adrenocortical cell cultures. These were previously treated for 6 h with SC-26196 (10 µM) or DMSO. SC-26196 or DMSO were re-added and adrenocortical cells were incubated for another 18 h until supernatants were collected for steroid measurement. In other experiments, medulla explants were treated for 6 h with SC-26196 (10 µM) or DMSO, washed thoroughly and left another 18 h in culture. Their supernatant was then applied on adrenocortical cell cultures and 8 h later supernatants of the latter were collected and analyzed by LC-MS/MS.
Steroid hormones in plasma and cell culture supernatants were analyzed by LC-MS/MS as previously described (71). Fifty to hundred µL plasma or cell culture supernatants were extracted by solid phase extraction using positive pressure, followed by a dry-down under gentle stream of nitrogen. […] Quantification of steroid concentrations was done by comparisons of ratios of analyte peak areas to respective peak areas of stable isotope labeled internal standards obtained in samples to those of calibrators.

Data set [3] has as its system adrenal glands of mice fed a HFD. The data set can be described thus: FFA measurement (HPLC-MS) in adrenal glands of HFD mice with or without SC-26196. It counts as in vivo, WT C57BL/6J mice. Particulars: HFD with vs without SC-26196; n=8-10 mice per group. As to the method: Six weeks-old male WT C57BL/6J mice were fed for 20 weeks a LFD (D12450B, Research Diets, NJ, USA) or a HFD (D12492, Research Diets, NJ, USA). In some experiments, WT C57BL/6J mice were fed for 8 weeks a HFD and for another 8 weeks a HFD supplemented with SC-26196 (Biorbyt Ltd). SC-26196 was mixed in the HFD at a concentration of 625 mg/kg of diet corresponding to approx. 100 mg/kg of animal weight. In other experiments WT mice were fed for 10 weeks a HFD and for another 10 weeks a HFD supplemented with icosapent ethyl (Vascepa). The content of Vascepa capsules was mixed by Research Diets with the diet at a concentration of 1.125 g/kg icosapent ethyl (corresponding to approx. 180 mg/kg of animal weight). Mice were weighed every week. Glucose and insulin tolerance tests were performed as previously described (20, 21). Three to five mg of hair (2-3 mm close to the skin on the back of the mice) were cut while gently holding the mice without anaesthesia.
Frozen adrenal glands were homogenized in 200 µL PBS-buffer. Lipids were extracted from adrenal lysates or supernatants in chloroform/methanol (Folch's protocol). The extract was evaporated to dryness under stream of nitrogen at 40 °C. The residue was dissolved in 100 µL ethanol. For FFA 50 µL were used. […] The quantification was performed with individual calibration curves using deuterated standards (Cayman Chemical, Ann Arbor, MI).

The mark [4] stands for this setting: SC-26196 10 µM 18 h, then ACTH 10 ng/mL for 1 h, n=12.

1 compound from patent EP4458352A1, “EICOSAPENTAENOIC ACID ESTER DERIVATIVES FOR THE TREATMENT OF OBESITY” (Technische Universität Dresden, priority 2023, dated 2024) can be followed below.

Take `N#CC(CCCN1CCN(/N=C/c2cccnc2)CC1)(c1ccccc1)c1ccccc1` [SC-26196]: in data set [1] (setting [4]), the 11-deoxycorticosterone production entry is listed as “abolished”, the aldosterone production entry is recorded as “abolished”, the corticosterone production entry is given as “abolished” and the progesterone production entry was “abolished”. Besides, in data set [1] (SC-26196-treated primary adrenal cell cultures, data not shown), the cell viability entry is listed as “without affecting cell viability”. Moreover, the “steroid synthesis in cells receiving medulla-conditioned medium” value in data set [2] (adrenocortical cells treated 6 h with SC-26196 10 µM, then conditioned medium for another 18 h, n=4-6) was “diminished steroid synthesis”. In addition, in data set [2] (medulla explants treated 6 h with SC-26196 10 µM, washed, 18 h culture, supernatant on adrenocortical cells 8 h, n=8), the “increase of progesterone, 11-dehydrocorticosterone and corticosterone production by medulla-conditioned supernatants” value is “attenuated”. For the same compound, the “free PUFA, including ARA, levels in the adrenal glands” value in data set [3] is given as “reduced”.
